Results from the NIST ThermoML archive (doi:10.1016/j.fluid.2013.09.036).

Columns and labels:
[1] = 101.33 kPa, Liquid; for mass density: Vibrating tube method
[2] = xn = mol fraction of the nth substance listed; details: Liquid, Other PVT measurement

CCC[N+]1(C)CCCC1.O=S(=O)([N-]S(=O)(=O)C(F)(F)F)C(F)(F)F
[1]
Details | electrical conductivity [S/m] | mass density [kg/m3] | viscosity [mPa·s]
278.15 K | 0.158 | 1446.23 | 169.4
283.15 K | 0.206 | 1441.6 | 127.2
288.15 K | 0.262 | 1437 | 97.84
293.15 K | 0.327 | 1432.46 | 76.89
298.15 K | 0.4 | 1427.91 | 61.52
303.15 K | 0.483 | 1423.37 | 49.99
313.15 K | 0.675 | 1414.36 | 34.45
323.15 K | 0.902 | 1405.44 | 24.91
333.15 K | 1.16 | 1396.6 | 18.71
343.15 K | 1.46 | 1387.82 | 14.51
353.15 K | 1.78 | 1379.12 | 11.55
363.15 K | – | 1370.48 | 9.398

CCC[N+]1(C)CCCC1.O=S(=O)([N-]S(=O)(=O)C(F)(F)F)C(F)(F)F + O=C=O
[2]
Details | molar volume [m3/mol]
298.15 K, 525.5 kPa, x2 = 0.134 | 0.0002522
298.15 K, 1123.1 kPa, x2 = 0.255 | 0.0002222
298.15 K, 1476.5 kPa, x2 = 0.316 | 0.0002071
298.15 K, 1913.1 kPa, x2 = 0.376 | 0.0001924
298.15 K, 2237.6 kPa, x2 = 0.418 | 0.000182
298.15 K, 2800.7 kPa, x2 = 0.478 | 0.0001674
298.15 K, 3281.6 kPa, x2 = 0.523 | 0.0001565
298.15 K, 3998.7 kPa, x2 = 0.578 | 0.0001431
298.15 K, 4567.3 kPa, x2 = 0.616 | 0.0001339
313.15 K, 567.7 kPa, x2 = 0.113 | 0.0002606
313.15 K, 1217.5 kPa, x2 = 0.218 | 0.0002344
313.15 K, 1606.5 kPa, x2 = 0.273 | 0.0002203
313.15 K, 2083.3 kPa, x2 = 0.327 | 0.000207
313.15 K, 2445 kPa, x2 = 0.369 | 0.0001966
313.15 K, 3072.7 kPa, x2 = 0.425 | 0.0001827
313.15 K, 3613.6 kPa, x2 = 0.468 | 0.0001718
313.15 K, 4415.1 kPa, x2 = 0.519 | 0.0001596
313.15 K, 5100.5 kPa, x2 = 0.561 | 0.000149
333.15 K, 618.4 kPa, x2 = 0.093 | 0.0002678
333.15 K, 1333.3 kPa, x2 = 0.18 | 0.0002455
333.15 K, 1767.4 kPa, x2 = 0.229 | 0.0002327
333.15 K, 2294.9 kPa, x2 = 0.275 | 0.0002214
333.15 K, 2702.9 kPa, x2 = 0.316 | 0.0002107
333.15 K, 3411.9 kPa, x2 = 0.368 | 0.0001978
333.15 K, 4029.9 kPa, x2 = 0.409 | 0.0001874
333.15 K, 4942.5 kPa, x2 = 0.455 | 0.0001767
333.15 K, 5777.2 kPa, x2 = 0.501 | 0.000165
